Publication PMC10666625, “Exploring the benefits of in-diet versus repeated oral dosing of saracatinib (AZD0530) in chronic studies: insights into pharmacokinetics and animal welfare” (Frontiers in Veterinary Science, 2023)

What was measured:
[1] = Serum pharmacokinetics after a single oral dose (24 h study), LC-MS/MS, noncompartmental analysis; assay type: in vivo, Sprague Dawley rats
Experimental: Twenty eight adult male Sprague Dawley rats (8 weeks old; 250-300 g; Charles River, United States) were used in the study. Animals were housed in individual cages with a 12-h light–dark cycle in an enriched environment. The experiments were conducted after 2–3 days of acclimatization as per the approved protocols by the Institutional Animal Care and Use Committees (IACUC protocol: 21–109) and complied with the NIH ARRIVE Guidelines for the Care and Use of Laboratory Animals. Blood sampling was done by retro-orbital puncture as per IACUC protocol. Maximal blood collection was limited to less than 7.5% of the […] in one week. The serum was separated by centrifugation at 1,000–1,500 × g for 10 min and stored at −80°C until further analysis. All animals were euthanized at the end of the study with pentobarbital sodium and phenytoin sodium (100 mg/kg, i.p.) as per the American Veterinary Medical Association Guidelines for euthanasia. Tissue samples were collected and stored at −80°C until further analysis.
(§1) The animals were randomized into four experimental groups (n = 4–8). In group 1 (24 h study; Figure 1A), eight animals received a single oral gavage of saracatinib (20 mg/kg), and the blood sampling was done at 0.5, 1, 2, 4, 6, 8, 12, and 24 h post-treatment. Four animals each were euthanized at 4 h and 24 h, respectively. In group 2 (7-day repeated oral dosing study; Figure 1B), eight animals received repeated daily oral dosing of saracatinib (20 mg/kg of rat) at 24 h intervals; the blood sampling was done daily at 24 h intervals before the next dosing. Four animals were euthanized 24 h after the third repeated oral dosing, i.e., day 3 and the other four animals were euthanized at day 7. Group 3 (7-day SAR-in-Diet study; Figure 1C), received a single oral gavage of saracatinib (20 mg/kg of rat) followed by 24 h later SAR-in-Diet for 7 days (260 ppm). The blood sampling was done at 24 h post oral and daily at 24 h intervals for 7 days while the animals were on SAR-in-Diet. Four animals each were euthanized on day 3 and 7. Group 4 (Figure 1D) included four animals that were given 7 repeated doses of oral saracatinib (20 mg/kg/day for a week) followed by ad-libitum SAR-in-Diet at varying concentrations fed for up to 18 weeks (260 ppm diet for 2 weeks, 210 ppm diet for a week, 160 ppm for 4 weeks, and 50 ppm diet for 11 weeks) The tapering concentrations of saracatinib in the diet from 260 to 50 ppm was done to target a daily saracatinib dose rate in the range of 20–5 mg/kg respectively, in a 24 h feeding cycle. Blood samples were collected at the end of each diet change.
Samples were submitted to the W.M. Keck Metabolomics Research Laboratory (Office of Biotechnology, Iowa State University, Ames, IA) for targeted saracatinib LC–MS/MS quantification. Serum and hippocampus preparations were conducted using a modified version of the previously available extraction and sample preparation methods previously established ([18], [19]). 50–75 μL or 50–75 mg wet weight of each sample was added to microcentrifuge tubes. A Reagent control sample was generated for each sample batch, 75 μL of 0.9% NaCl which was extracted in the same fashion as the samples. The weighed samples were then spiked with the internal standard, 1.25 μg of S-Hexylglutathione (Sigma-Aldrich CO., St. Louis, MO), added as 10 μL of from a 0.125 mg/mL solution in LC–MS grade 9:1 methanol: acetonitrile (Fisher Scientific, Waltham, MA). The extraction was initiated by the addition of 0.4 mL of 90% ice-cold LC–MS grade methanol with 10% LC–MS grade water (Fisher Scientific, Waltham, MA). For the hippocampus samples, after adding the 90% methanol to the samples, two 2.4 mm metal beads were added to each sample, the tissue was then homogenized using a Bead Mill 24 Homogenizer (Thermo Fisher Scientific, Inc., Waltham, MA, United States). […]

[2] = Hippocampal concentrations after a single oral dose (24 h study); assay type: in vivo, Sprague Dawley rats; details: single oral dose 20 mg/kg
Experimental: as §1
(§2) Samples were submitted to the W.M. Keck Metabolomics Research Laboratory (Office of Biotechnology, Iowa State University, Ames, IA) for targeted saracatinib LC–MS/MS quantification. Serum and hippocampus preparations were conducted using a modified version of the previously available extraction and sample preparation methods previously established ([18], [19]). 50–75 μL or 50–75 mg wet weight of each sample was added to microcentrifuge tubes. […]

[3] = 7-day repeated daily oral dosing study: serum and hippocampal concentrations; assay type: in vivo, Sprague Dawley rats
Experimental: as §1, §2

[4] = Stability at room temperature in solution or in diet by LC-MS/MS; assay type: physicochemical
Experimental: Samples were submitted to the W.M. Keck Metabolomics Research Laboratory (Office of Biotechnology, Iowa State University, Ames, IA) for targeted saracatinib LC–MS/MS quantification. One or two food pellets (1.5–3 g) were homogenized by mortar-and-pestle before being transferred and weighed in glass tubes with Teflon-lined screw caps. A reagent control sample was generated for each sample batch which was prepared in the same fashion as the samples. The weighed samples were then spiked with the internal standard, 250 μg of S-Hexylglutathione (Sigma-Aldrich CO., St. Louis, MO), added as 1.0 mL of from a 0.25 mg/mL solution in LC–MS grade 9:1 methanol: acetonitrile (Fisher Scientific, Waltham, MA). The extraction was initiated by the addition of 8 mL of 90% LC–MS grade methanol with 10% LC–MS grade water (Fisher Scientific, Waltham, MA). […]
LC separations were performed with an Agilent Technologies 1,290 Infinity Binary Pump UHPLC instrument equipped with an Agilent Technologies Eclipse C18 1.8 μm 2.1 mm × 100 mm analytical column that was coupled to an Agilent Technologies 6,540 UHD Accurate-Mass Q-TOF mass spectrometer (Agilent Technologies, Santa Clara, CA). […] Saracatinib was detected using electrospray ionization in positive ionization mode. […] During LC–MS data acquisition, reference masses were monitored for continuous mass calibration: m/z 121.050873 with m/z 922.009698. […]

[5] = parameters: method as in PMID 19775203; details: healthy humans, 250 mg/day once daily for 10–14 days; cited from earlier work
[6] = system: kainate (KA) model of temporal lobe epilepsy; parameters: method as in PMID 34087381; details: treating for a week, repeated oral dosing; cited from earlier work
[7] = system: organophosphate (OP) induced epilepsy models; parameters: method as in PMID 35052568; details: treatment for a week; cited from earlier work
ABCB1 = system: ABCB1; parameters: method as in PMID 22623106; details: cited from earlier work
[8] = male, Sprague Dawley, single oral dose 20 mg/kg, rat serum, median, n=4

CN1CCN(CCOc2cc(OC3CCOCC3)c3c(Nc4c(Cl)ccc5c4OCO5)ncnc3c2)CC1 [saracatinib, Saracatinib]
Time saracatinib was detected in the serum ([1]; after a single oral dose 20 mg/kg): up to 24 h | Tmax ([1]; male, Sprague Dawley, rat, serum, po, 20 mg/kg, single oral dose 20 mg/kg, rat serum, median, n=4): 6 h | AUC(0-t) ([1]; male, Sprague Dawley, single oral dose 20 mg/kg, rat serum, 0 to 24 h, median, n=4, read-out: AUC (0-tlast)): 6990 ng·h/mL | AUC(0-inf) [1, 8]: 7060 ng·h/mL | CL/F [1, 8]: 47.2 mL/min/kg | Cmax [1, 8]: 954 ng/mL | Vd/F [1, 8]: 15.6 L/kg | half-life [1, 8]: 4.12 h | k el [1, 8]: 5e-05 s⁻¹ | concentration at 4 h ([2]; male, Sprague Dawley, rat, hippocampus, 4 h, read-out: Hippocampal level): > 500 ng/g | Hippocampal versus serum concentrations ([2]; 4 h and 24 h): higher than the serum concentrations | Hippocampal concentration at 24 h compared to 4 h ([2]; 24 h): dropped to nearly half | concentration at 3 day ([3]; male, Sprague Dawley, rat, hippocampus, repeated oral dosing 20 mg/kg/day, day 3, read-out: Hippocampal saracatinib concentration): 239 ± 143 ng/g | concentration at 7 day ([3]; male, Sprague Dawley, rat, hippocampus, repeated oral dosing 20 mg/kg/day, day 7, read-out: Hippocampal saracatinib concentration): 271 ± 62.3 ng/g | Serum saracatinib concentration (trough, 24 h after dose) ([3]; repeated daily oral dosing 20 mg/kg, first three days): ~ 100 ng/mL | Time stable at room temperature [4]: > 4 weeks | Stability at room temperature (percent) ([4]; >4 weeks): 97 ± 1.56% | T1/2 [5]: 40 h | Tolerability [5]: well tolerated | Long-term effects (reactive gliosis, neurodegeneration, epileptiform spiking, spontaneously recurring seizures) [6]: sufficient to mitigate long-term effects | Protective effects [7]: limited | Effect on ABCB1 (ABCB1): only inhibits ABCB1 transport function, without altering ABCB1 expression or AKT phosphorylation
